Tests used:
[1] = log P determination by HPLC on reverse-phase column (EEC directive 79/831 Annex V.A8); type: physicochemical; conditions: reverse-phase C18 HPLC column, acidic range (pH 2.3), 0.1% aqueous phosphoric acid/acetonitrile, 43° C.
Protocol: The log P values given in the table were determined in accordance with EEC directive 79/831 Annex V.A8 by HPLC (High Performance Liquid Chromatography) on a reverse-phase column (C 18). Temperature: 43° C. (a) Mobile phases for the determination in the acidic range (pH 2.3): 0.1% aqueous phosphoric acid, acetonitrile; linear gradient from 10% acetonitrile to 90% acetonitrile—the corresponding measurement results in table 1 are marked a). Calibration was carried out using unbranched alkan-2-ones (having 3 to 16 carbon atoms) with known log P values (determination of the log P values by the retention times using linear inter-polation between two successive alkanones).

[2] = tested on: larvae of the mustard beetle (Phaedon cochleariae); assay: Phaedon test (spray treatment); type: in vivo; conditions: 500 g/ha, spray treatment of Chinese cabbage disks
Protocol: (§1) To produce a suitable preparation of active compound, 1 part by weight of active compound is mixed with the stated amounts of solvents and emulsifier, and the concentrate is diluted with emulsifier-containing water to the desired concentration. Disks of Chinese cabbage (Brassica pekinensis) are sprayed with a preparation of active compound of the desired concentration and, after drying, populated with larvae of the mustard beetle (Phaedon cochleariae). After the desired period of time, the effect in % is determined. 100% means that all beetle larvae have been killed; 0% means that none of the beetle larvae have been killed.

[3] = tested on: caterpillars of the armyworm (Spodoptera frugiperda); assay: Spodoptera frugiperda test (spray treatment); type: in vivo; conditions: 500 g/ha, spray treatment of corn leaf disks
Protocol: as §1, with “corn leaves (Zea mays)” for “Chinese cabbage (Brassica pekinensis)”, “caterpillars” for “larvae”, “armyworm (Spodoptera frugiperda).” for “mustard beetle (Phaedon cochleariae).”, “caterpillars” for “beetle larvae”

SMILES	chromatographic logP [1]	Kill rate in % after 7 d [2] [%]	Kill rate in % after 7 d [3] [%]
N#CCNC(=O)c1cnncc1C(F)(F)F [Example 1, N-cyanomethyl-5-trifluoromethylpyridazine-4-carboxamide]	0.6		
O=C(NC(c1ccccc1)c1ccccn1)c1cnncc1C(F)(F)F (stereo not shown) [Ia-59]		100	100
COC(=O)c1cnncc1C(F)(F)F [methyl 5-trifluoromethylpyridazine-4-carboxylate]	1.68		

— US20080214552A1, “Substituted Pyridazinecarboxamides and Derivatives Thereof” (priority 2004, published 2008)
